Tests used:
[1] = test system: HL-60 cells; test: HL-60 responses to selected compounds at a range of concentrations; format: cell-based, human; conditions: for activity at 30 µM / activity at 100 µM / activity at 330 µM / activity at 1000 µM / activity at 3300 µM / activity at 10000 µM / activity at 15000 µM / activity at 20000 µM: Homo sapiens, HL-60, read-out: HL-60 Cell Responses to Selected Compounds from PM1 and PM2; for activity at 30 µM: Conc. 0.03 mM; for activity at 100 µM: Conc. 0.10 mM; for activity at 330 µM: Conc. 0.33 mM; for activity at 1000 µM: Conc. 1.00 mM; for activity at 3300 µM: Conc. 3.3 mM; for activity at 10000 µM: Conc. 10 mM; for activity at 15000 µM: Conc. 15 mM; for activity at 20000 µM: Conc. 20 mM
In short: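 Washed HL-60 cells (5×10^4/well) in DME-R were exposed to test energy sources at final 0.033 to 20 mM for 24 h at 37 °C, then MTS/MPMS was added for a further 24 h. OD490 (ref 650 nm) was corrected with cell-free control plates and normalized to % of no-energy-source control.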

[2] = test system: HL-60 cells; test: Effect of 1 mM chloramphenicol on HL-60 energy utilization; format: cell-based, human; conditions: negative control without chloramphenicol
In short: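 Washed HL-60 cells (5×10^4/well) in DME-R with chloramphenicol (1 mM final) were exposed to test energy sources at 0.033 to 20 mM final for 24 h at 37° C, 5% CO2. MTS/MPMS reagent was then added and read 24 h later at 490 nm (650 nm reference). Cell-free plate OD was subtracted, and values were given as % of the negative control without chloramphenicol.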

[3] = test system: E. coli MG1655; format: cell-based, Escherichia coli
[4] = test system: Undifferentiated HL-60 cells; test: Energy use by undifferentiated HL-60 cells; format: cell-based, human; conditions: Homo sapiens, HL-60, 24 h, read-out: Energy Use by Undifferentiated HL-60 Cells; for activity at 30 µM: Conc. 0.03 mM; for activity at 100 µM: Conc. 0.10 mM; for activity at 330 µM: Conc. 0.33 mM; for activity at 1000 µM: Conc. 1.00 mM; for activity at 3300 µM: Conc. 3.3 mM; for activity at 10000 µM: Conc. 10 mM; for activity at 15000 µM: Conc. 15 mM; for activity at 20000 µM: Conc. 20 mM
[5] = test system: ten strains of E. coli; format: cell-based, Escherichia coli; further: key: +: indicates that the organism tested was capable of utilizing the carbon source listed; −: indicates that the organism tested was not capable of utilizing the carbon source listed; indicates weak positive reactions
[6] = energy source 0.03 mM with 1 mM chloramphenicol
[7] = energy source 0.10 mM with 1 mM chloramphenicol
[8] = energy source 0.33 mM with 1 mM chloramphenicol
[9] = energy source 1.00 mM with 1 mM chloramphenicol
[10] = energy source 3.3 mM with 1 mM chloramphenicol
[11] = energy source 10 mM with 1 mM chloramphenicol
[12] = energy source 15 mM with 1 mM chloramphenicol
[13] = energy source 20 mM with 1 mM chloramphenicol

Row | Structure (SMILES) | activity at 30 µM [1] | activity at 100 µM [1] | activity at 330 µM [1] | activity at 1000 µM [1] | activity at 3300 µM [1] | activity at 10000 µM [1] | activity at 15000 µM [1] | activity at 20000 µM [1] | Effect of 1 mM chloramphenicol on HL-60 Energy Utilization [2, 6] | Effect of 1 mM chloramphenicol on HL-60 Energy Utilization [2, 7] | Effect of 1 mM chloramphenicol on HL-60 Energy Utilization [2, 8] | Effect of 1 mM chloramphenicol on HL-60 Energy Utilization [2, 9] | Effect of 1 mM chloramphenicol on HL-60 Energy Utilization [2, 10] | Effect of 1 mM chloramphenicol on HL-60 Energy Utilization [2, 11] | Effect of 1 mM chloramphenicol on HL-60 Energy Utilization [2, 12] | Effect of 1 mM chloramphenicol on HL-60 Energy Utilization [2, 13] | suitability as nitrogen source (growth, purple color) [3] | activity at 30 µM [4] | activity at 100 µM [4] | activity at 330 µM [4] | also measured
1 | Cc1cn([C@H]2C[C@H](O)[C@@H](CO)O2)c(=O)[nH]c1=O [Thymidine] | 121% | 125% | 128% | 134% | 129% | 106% | 91.5% | 68.5% | 8.4 % of negative control | 5.8 % of negative control | 6.4 % of negative control | 3.1 % of negative control | 8.8 % of negative control | 5.8 % of negative control | 6.0 % of negative control | 7.3 % of negative control | not suitable | 84.1% | 106% | 101% | activity at 1000 µM [4]: 90.9%; activity at 3300 µM [4]: 111%; activity at 10000 µM [4]: 80.3%; activity at 15000 µM [4]: 81.3%; activity at 20000 µM [4]: 52.3%; carbon source utilization [5]: +
2 | NC(=O)C[C@H](N)C(=O)O [L-asparagine] | 134% | 149% | 138% | 149% | 135% | 137% | 128% | 118% | 6.3 % of negative control | 17.4 % of negative control | 7.6 % of negative control | 3.1 % of negative control | 12.1 % of negative control | 22.9 % of negative control | 20.9 % of negative control | 30.2 % of negative control | positive | 128% | 118% | 118% | response in words ([1]; 0.033 to 20 mM): strongly utilized, even at very low concentrations; activity at 1000 µM [4]: 124%; activity at 3300 µM [4]: 136%; activity at 10000 µM [4]: 141%; activity at 15000 µM [4]: 153%; activity at 20000 µM [4]: 157%; carbon source utilization [5]: + and −
